Assay results: the pKa sets of Baltruschat and Czodrowski (2020)

Details: acidic group

Row | Compound | pKa
1 | O=C(O)c1ccc[nH]1 | 4.35
2 | O/C(=C\c1ccccc1)c1ccco1 | 8.5
3 | CCCCB(O)O | 10.7
4 | O=C(O)[C@H](O)c1ccc([N+](=O)[O-])cc1 | 2.99
5 | Cc1nc(N)cc(O)[nH+]1 | 1.7
6 | O=C(O)c1ccccc1F | 3.6
7 | O=C(O)[C@H]1CC[C@H](O)CC1 | 4.68
8 | O=C(O)[C@@]1(Cl)[C@@H]2CCC[C@@H]21 | 3.03
9 | CC1(C)CCC(C(=O)O)=[N+]1[O-] | 2.8
10 | Cn1c(=O)[nH]c2c(ncn2C)c1=O | 6.3
11 | Nc1ccc(O)c([N+](=O)[O-])c1 | 7.81
12 | Cc1cc(/N=N/c2ccc(S([NH-])(=O)=O)cc2)cc(C(=O)[O-])c1O | 12.1
13 | CC(=O)NS(=O)(=O)c1ccsc1C(=O)O | 3.1
14 | Nc1ccc(O)c(N)c1 | 10.4
15 | O=C(O)[C@H]1C[C@@H]1c1ccc(Cl)cc1 | 4.53
16 | CC1(C)SC(=O)NC1=O | 6.64
17 | Fc1ccc(NC=S)cc1 | 11.2
18 | O=C(O)c1cccc2ccc(O)cc12 | 3.69
19 | O=c1oc2cc(O)ccc2cc1-c1nc2cc(Cl)ccc2o1 | 6.8
20 | O=c1c(O)c1-c1ccccc1 | 2.01
21 | O=C([O-])c1cccc([N+](=O)[O-])c1O | 10.3
22 | O=C1CC(=O)CS(=O)C1 | 3.12

Row | Compound | pKa
23 | CNS(=O)(=O)C(F)(F)F | 7.56
24 | COc1ccc(O)c(/N=N/c2nc(C)cs2)c1 | 7.98
25 | Cc1ccc(C(=O)/C=C/C(=O)O)cc1 | 3.44
26 | N#CC(C#N)=NNc1ccccc1C(F)(F)F | 5
27 | O=C(O)c1cc[nH]c1 | 4.98
28 | O/N=C/C=C/c1ccccc1 | 10.6
29 | On1nnc2ccc(Br)cc21 | 3.97
30 | O=C(C[N+](=O)[O-])c1ccccc1 | 5.19
31 | S=C(Nc1ccccc1)c1ccc(Cl)cc1 | 10.8
32 | CC(=O)OO | 8.19
33 | CCC(P)C(=O)O (stereo unspecified) | 4.08
34 | Oc1ccccc1-c1ccccc1O | 7.5
35 | CCCC(C(CC)CO)C(CC)C(=O)O (stereo unspecified) | 4.78
36 | NC(=O)Cc1ccc(C(=O)O)cc1 | 4.06
37 | Cc1nn(-c2ccccc2)c(O)c1C(C)C | 11.6
38 | COc1cc(OC)nc([N-]S(=O)(=O)c2ccc(O)cc2)n1 | 9.05
39 | O=C1COC(=O)N1 | 5.84
40 | O/N=C/c1ccc2c(c1)OCO2 | 10.8
41 | CC(C#N)C(C)(C)C(=O)O (stereo unspecified) | 3.97
42 | CC(C)(C)C(=O)NO | 9.59
43 | CC(C)(C)Cc1ccccc1O | 10.7
44 | CC(=O)C1C(=O)OC(=O)C=C1C (stereo unspecified) | 1.34

Row | Compound | pKa
45 | CCC(=O)NO | 9.46
46 | NCc1ccccc1S(N)(=O)=O | 10.1
47 | O=c1ccn([C@@H]2C[C@@H](O)[C@H](CO)O2)c(=O)[nH]1 | 9.3
48 | O=[N+]([O-])c1ccc[nH]1 | 10.6
49 | [O-]c1ncncc1O | 11.6
50 | Cc1ccc(I)c(C(=O)O)c1 | 2.95
51 | O=[PH](O)C([NH2+]Cc1cccc[nH+]1)c1ccccc1O (stereo unspecified) | 2.4
52 | CCP(=O)(O)CC | 3.22
53 | C[C@H]([NH3+])C(=O)N[C@@H](Cc1c[nH]c[nH+]1)C(=O)O | 2.73
54 | Nc1cccc[n+]1O | 2.67
55 | CC(C)[C@H]1C[NH2+][C@H](C(=O)O)[C@H]1CC(=O)O | 2.12
56 | O=C(Cc1ccccc1)c1cc[n+](Cc2cccc([N+](=O)[O-])c2)cc1 | 8.68
57 | Oc1cccc2cccc(O)c12 | 6.71
58 | CC(=O)[C@@H]1C[C@H](C(=O)O)C1(C)C | 4.63
59 | O=[N+]([O-])c1cc(Br)c(O)c(Br)c1 | 3.7
60 | CCCC[P+](CCCC)(CCCC)C1c2ccccc2-c2ccccc21 | 10.5
61 | O=C(OCc1ccccc1)c1ccc(O)cc1 | 8.31
62 | Cc1c(Cn2cc[nH+]c2)sc2cc(C(=O)O)ccc12 | 3.59
63 | C/C(=C\C=C\C(C)C(=O)O)[C@H]1C[NH2+][C@H](C(=O)[O-])[C@H]1CC(=O)[O-] (stereo partly specified) | 4.93
64 | C=C(C)/C(C)=C(\C)O | 12
65 | Oc1ccc2cc(Cl)ccc2c1 | 9.31
66 | N#CC(C(=O)O)c1ccccc1 (stereo unspecified) | 1.77

Row | Compound | pKa
67 | Sc1cccc2ncccc12 | 6.48
68 | C[NH+](C)Cc1cccc(NC(=O)/C=N/O)c1 | 8.28
69 | CP(C)(=O)O | 3.08
70 | O=C1C[C@H](C(=O)O)[C@@H](C(=O)O)O1 | 2.26
71 | CCc1nc2cc3ccccc3cc2[nH]1 | 12.9
72 | CC(=O)c1ccc([N+](=O)[O-])cc1 | 16.6
73 | NC(=O)C(CCC(=O)O)c1ccccc1 (stereo unspecified) | 4.64
74 | Oc1cncc[nH+]1 | -0.1
75 | Nc1nc2c(ncn2[C@@H]2C=C[C@H](CO)C2)c(O)[nH+]1 | 3.15
76 | O=[N+]([O-])/C(=N/O)c1ccc(Cl)cc1 | 6.6
77 | Cc1ccccc1SCC(=O)O | 3.46
78 | Cc1cc(O)nn1-c1ccccc1C(=O)N1CCCCC1 | 12.4
79 | Cc1cc(C(=O)O)ccc1O | 4.68
80 | O=[N+]([O-])c1cc(Cl)c(O)c(Cl)c1 | 3.7
81 | O=C(O)C[NH+](CC(=O)O)Cc1ccccc1O | 2.2
82 | O=C([O-])[C@H](P)CC[C@H](P)C(=O)O | 4.49
83 | On1nnc2c(Cl)cccc21 | 3.9
84 | COc1ccc(C(=S)Nc2ccc(Br)cc2)cc1 | 10.9
85 | c1ncc2[nH]cnc2n1 | 8.92

Same assay, conditions: basic group

Row | Compound | pKa
86 | O=C(O)c1ccc[nH]1 | -0.65
87 | Nc1ccc2cc3ccc(Cl)cc3nc2c1 | 7.26
88 | NC(Cc1c[nH]c2ccccc12)C(=O)[O-] (stereo unspecified) | 9.44
89 | NC[C@H](O)C(=O)[O-] | 9.27
90 | NCC1CCCCC1 | 10.5
91 | N[C@H]1CCCC[C@@H]1C(=O)Oc1ccc([N+](=O)[O-])cc1 | 8.57
92 | CC1CC[C@H](O)[C@@H](N)C1 (stereo partly specified) | 9.5
93 | Nc1ccc(O)c(N)c1 | 5.7
94 | Cc1ccc2c(c1)N1CCN2CC1 | 5.83
95 | CCNCCN | 10.5
96 | CCNc1nc(N)nc(N)n1 | 5.23
97 | NCc1ccc(F)c([O-])c1 | 10
98 | Cn1c(=O)c2[nH]c[nH+]c2n(C)c1=O | 0.7
99 | O=C([O-])[C@@H]1CCCN1 | 10.6
100 | OCc1ccncc1 | 5.41
101 | CC(=O)Nc1ccncc1 | 5.87
102 | COc1ccc(O)c(/N=N/c2nc(C)cs2)c1 | 0.77
103 | Cc1ccccc1C(=N)c1ccccc1 | 7.21
104 | N#CC(C#N)=NNc1ccccc1C(F)(F)F | -0.7
105 | O=C([O-])C1CCNC1 (stereo unspecified) | 10.7
106 | C[NH+](C)CCNCC[NH+](C)C | 3.84
107 | O=[N+]([O-])c1ccc([O-])c(CN2CCOCCOCCOCCOCC2)c1 | 9.69
108 | C[Se](C)=O | 2.55

Row | Compound | pKa
109 | C[NH+](C)CCNCC[NH3+] | 4.36
110 | C[NH+](C)CCCNc1ccnc2c([N+](=O)[O-])cccc12 | 6.91
111 | CCCCNCCCC | 11.3
112 | NC(=O)c1cc(-c2ccccc2)nnc1NCC[NH+]1CCOCC1 | 2.5
113 | CCNNCC | 7.66
114 | c1ccc(-c2cnc3c(ccc4cccnc43)c2)cc1 | 4.82
115 | FC(F)(F)c1cc(-c2ccccc2)nnc1NCC[NH+]1CCOCC1 | 1.44
116 | CCCCCCCCCCCCNCCCCCCCCCCCC | 11
117 | Nc1ccc2nc(/C=C/c3ccccc3)ccc2c1 | 5.5
118 | CCc1nc2cc3c(cc2[nH]1)CCCC3 | 6.64
119 | CN(C)c1ccc([N+](=O)[O-])cc1 | 0.69
120 | C[Si](C)(C)CCN | 11
121 | [NH3+]CC(=O)N[C@@H](Cc1c[nH]cn1)C(=O)[O-] | 6.77
122 | CCc1cc(Cl)c([O-])c(C(=O)NC[C@H]2CCCN2CC)c1OC | 9.54
123 | Nc1ccc2c(c1)Cc1cc(O)ccc1-2 | 4.88
124 | Nc1ncnc2c1nnn2Cc1ccco1 | 2.6
125 | CSc1ccc(N)cc1Cl | 3.38
126 | CCN(CC)/N=C(\C)N | 10.6
127 | NCc1ccccc1S(N)(=O)=O | 8.53
128 | Nc1cccc2nc3ccccc3cc12 | 6.04
129 | O=C(N/[NH+]=C/c1ccccc1)c1ccncc1 | 1.82
130 | c1ccc(CC2CCCN2)cc1 (stereo unspecified) | 10.3
131 | CN(C)CCCN | 10

Row | Compound | pKa
132 | CNc1cccc2ccccc12 | 3.7
133 | CN(C)/C=N/c1cccc(Cl)c1 | 7.97
134 | Cc1ccc(NCCS)cc1 | 5.08
135 | [O-]c1ncncc1O | 7.48
136 | CCn1nnc(CC(=O)O)n1 | 3.45
137 | CCCn1nnnc1N | 1.8
138 | N=C(SCc1ccccc1)c1ccccc1 | 4.43
139 | Cc1cc(=O)n(-c2ccccc2)n1C | 1.45
140 | CCN(C)N(C)C | 6.38
141 | CCCCCC(C)NC (stereo unspecified) | 11
142 | O=[N+](O)C1=CC=CC1 | 3.25
143 | NCCC(=O)N[C@@H](Cc1cnc[nH]1)C(=O)[O-] | 9.35
144 | c1csc(-c2nccs2)n1 | 2.76
145 | OCc1ccc(-c2nccc3c2[nH]c2ccccc23)o1 | 5.7
146 | O=C([O-])C1CCCCN1 (stereo unspecified) | 10.6
147 | Nc1ccnc(-c2ccccn2)c1 | 8.1
148 | COc1ccc(-c2cn3ccsc3n2)c(OC)c1 | 4.67
149 | COc1ccc(CON)cc1 | 4.42
150 | CCCN1C=CC(=CC=C2C=CC(=O)C=C2)C=C1 | 8.5
151 | CNCCCN | 10.7
152 | CN(C)[C@H]1CC[C@@H](C)CC1 | 10.5
153 | C1CNCCNCCNC1 | 11.7
154 | CCN(CC)c1nc(N)nc(N(CC)CC)n1 | 6.28

Row | Compound | pKa
155 | Cc1nc(N)nc(N)n1 | 4.59
156 | Clc1ccnc(-c2ccccn2)c1 | 3.8
157 | Cc1ccc2c(c1)cc(C)n2C | 0.5
158 | CCc1nc2cc3ccccc3cc2[nH]1 | 6.14
159 | CNO | 6.05
160 | COc1ccc(C(O)CN)cc1 (stereo unspecified) | 9.02
161 | COC(=O)C[C@@H]1[C@@H](C(=O)[O-])NC[C@H]1C(C)O (stereo partly specified) | 9.41
162 | N[C@@H](CC(=O)[O-])C(=O)[O-] | 9.54
163 | Cc1ccc(NCO)cc1 | 3.42
164 | CC[C@]1(O)C[C@@H](C)N[C@H]2CCCC[C@@H]21 | 9.71
165 | NC(N)=S | -0.96
166 | [O-]c1ccnc2cccnc12 | 10
167 | COc1ccc2c(c1O)CN(C)CCc1cc3c(cc1C(=O)C2)OCO3 | 9
168 | C=C(C)C(=O)NCCN(C)C | 8.54
169 | NC/C=C/C(=O)[O-] | 9.46
170 | NC1Cc2ccccc2C1 | 9.55
171 | C=CC(=O)OCCN(CC)CC | 8.55
172 | CN1CCC[C@H]1c1cccnc1 | 7.85
173 | C[C@@H]1CC[C@H]2CC[C@H](C)N21 | 11.5
174 | Cc1cc(N)cc[n+]1[O-] | 4.1
175 | CC(C)N(C)/C=[NH+]/c1ccc(-c2c[nH]cn2)cc1 | 5.52
176 | c1ncc2[nH]cnc2n1 | 2.45
